Assay results from ChEMBL document CHEMBL3813666, “Discovery of 3-benzyl-1,3-benzoxazine-2,4-dione analogues as allosteric mitogen-activated kinase kinase (MEK) inhibitors and anti-enterovirus 71 (EV71) agents” (Bioorg Med Chem, 2016).
Active and inactive are the calls of the source. No cut-off for these calls is given here.

What was measured:
[1] = target: Serine/threonine-protein kinase B-raf (Homo sapiens, UniProt P15056, Y340D/Y341D)
[2] = target: Dual specificity mitogen-activated protein kinase kinase 1 (Homo sapiens) (UniProt Q02750); details: at 6.25 to 25 µM
[3] = Cytotoxicity activity against human rhabdomyosarcoma cells after 24 hrs by MTT assay; format: cell-based, Rhabdomyosarcoma cell
[4] = Non-competitive inhibition of N-terminal GST-tagged human BRAF/MEK1/RAF1 Y340D/Y341D double mutant measured after 2 hrs in presence of 300 uM of ATP by TR-FRET assay
[5] = Therapeutic index, ratio of CC50 for human rhabdomyosarcoma cells to EC50 for EV71 BC08 GU475127 infected in human rhabdomyosarcoma cells; details: read-out: Ratio CC50/EC50
[6] = tested on: Enterovirus A71; assay: Inhibition of VP1 expression in human rhabdomyosarcoma cells infected with EV71 BC08 GU475127 pre-treated for 1 hr followed by viral infection measured after 24 hrs by western blotting analysis
[7] = Non-competitive inhibition of N-terminal GST-tagged human BRAF/MEK1/RAF1 Y340D/Y341D double mutant measured after 2 hrs in presence of 100 uM of ATP by TR-FRET assay
[8] = tested on: Enterovirus A71; assay: Antiviral activity against EV71 BC08 GU475127 infected in human rhabdomyosarcoma cells assessed as reduction in viral induced cytopathic effect measured after 24 hrs by phase-contrast microscopy; format: functional, organism-based; details: Enterovirus A, BC08 GU475127, 24 h
[9] = Non-competitive inhibition of N-terminal GST-tagged human BRAF/MEK1/RAF1 Y340D/Y341D double mutant measured after 2 hrs in presence of 33.33 uM of ATP by TR-FRET assay
[10] = target: Dual specificity mitogen-activated protein kinase kinase; MEK1/2 (Homo sapiens) (UniProt P36507+Q02750); assay: Inhibition of MEK1/2 phosphorylation in human rhabdomyosarcoma cells infected with EV71 BC08 GU475127 at 6.25 to 25 uM pre-treated for 1 hr followed by viral infection measured after 24 hrs by western blotting analysis
Sequence of Dual specificity mitogen-activated protein kinase kinase; MEK1/2 (Homo sapiens) (P36507 whole entry, looked up): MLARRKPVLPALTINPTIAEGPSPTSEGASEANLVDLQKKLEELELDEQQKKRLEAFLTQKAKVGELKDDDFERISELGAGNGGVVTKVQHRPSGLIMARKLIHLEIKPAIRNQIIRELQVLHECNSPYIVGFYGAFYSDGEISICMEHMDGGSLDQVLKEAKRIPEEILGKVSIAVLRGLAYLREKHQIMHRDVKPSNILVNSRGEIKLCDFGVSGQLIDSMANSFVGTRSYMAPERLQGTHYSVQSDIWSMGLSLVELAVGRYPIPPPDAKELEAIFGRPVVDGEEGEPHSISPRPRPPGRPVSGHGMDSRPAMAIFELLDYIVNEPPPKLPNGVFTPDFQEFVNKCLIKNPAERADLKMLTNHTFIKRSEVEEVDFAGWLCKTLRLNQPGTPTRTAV
Sequence of Dual specificity mitogen-activated protein kinase kinase; MEK1/2 (Homo sapiens) (Q02750 whole entry, looked up): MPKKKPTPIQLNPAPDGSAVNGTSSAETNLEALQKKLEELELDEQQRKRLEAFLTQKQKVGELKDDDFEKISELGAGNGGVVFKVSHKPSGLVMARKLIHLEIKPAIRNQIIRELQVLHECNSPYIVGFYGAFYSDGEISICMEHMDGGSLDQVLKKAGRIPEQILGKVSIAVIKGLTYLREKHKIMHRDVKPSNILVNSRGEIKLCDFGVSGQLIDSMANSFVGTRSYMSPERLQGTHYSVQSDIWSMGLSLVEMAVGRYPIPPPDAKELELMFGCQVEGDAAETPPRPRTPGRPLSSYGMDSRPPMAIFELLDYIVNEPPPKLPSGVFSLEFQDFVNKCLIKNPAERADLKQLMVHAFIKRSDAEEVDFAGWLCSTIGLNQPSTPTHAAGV

Sequence of Serine/threonine-protein kinase B-raf (P15056 whole entry, looked up, stated change not applied): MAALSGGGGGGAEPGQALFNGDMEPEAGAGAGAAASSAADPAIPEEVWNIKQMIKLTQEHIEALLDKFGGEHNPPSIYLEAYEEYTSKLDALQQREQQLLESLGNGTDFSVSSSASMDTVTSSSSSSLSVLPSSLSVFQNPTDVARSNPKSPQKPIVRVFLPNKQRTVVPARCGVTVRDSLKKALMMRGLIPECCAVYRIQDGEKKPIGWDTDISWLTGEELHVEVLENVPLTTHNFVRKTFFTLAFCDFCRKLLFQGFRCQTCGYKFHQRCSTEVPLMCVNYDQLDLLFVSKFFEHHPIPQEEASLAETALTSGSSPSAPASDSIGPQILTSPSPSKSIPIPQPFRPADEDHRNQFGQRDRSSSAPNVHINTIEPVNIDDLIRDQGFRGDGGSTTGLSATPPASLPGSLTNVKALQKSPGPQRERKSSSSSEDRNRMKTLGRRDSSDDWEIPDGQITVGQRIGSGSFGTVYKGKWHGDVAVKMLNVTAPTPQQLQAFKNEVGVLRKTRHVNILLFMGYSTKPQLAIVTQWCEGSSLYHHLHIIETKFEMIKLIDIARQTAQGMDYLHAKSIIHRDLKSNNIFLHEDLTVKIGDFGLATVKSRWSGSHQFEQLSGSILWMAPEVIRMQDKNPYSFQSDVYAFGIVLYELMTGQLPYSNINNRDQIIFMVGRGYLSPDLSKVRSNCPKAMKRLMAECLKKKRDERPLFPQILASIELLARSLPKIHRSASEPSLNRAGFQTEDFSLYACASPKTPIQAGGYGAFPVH
Sequence of Dual specificity mitogen-activated protein kinase kinase 1 (Homo sapiens) (Q02750 whole entry): as the sequence (Q02750 whole entry, looked up) above

Structure (SMILES) | IC50 [1] | also measured
CCS(=O)(=O)Oc1ccc2c(=O)n(Cc3cccc(NS(=O)(=O)NC)c3F)c(=O)oc2c1 | 0.67 µM | 
CS(=O)(=O)Nc1cccc(Cn2c(=O)oc3cc(OC(=O)c4ccccc4)ccc3c2=O)c1F | > 10 µM | 
CC(=O)Nc1cccc(Cn2c(=O)oc3cc(OC(=O)N(C)C)ccc3c2=O)c1 | > 10 µM | 
CN(C)C(=O)Oc1ccc2c(=O)n(Cc3ccc(F)cc3)c(=O)oc2c1 | > 10 µM | 
CNS(=O)(=O)Nc1cccc(Cn2c(=O)oc3cc(OC(C)=O)ccc3c2=O)c1F | 0.61 µM | 
CN(C)C(=O)Oc1ccc2c(=O)n(Cc3cccc(NS(C)(=O)=O)c3F)c(=O)oc2c1 | 0.3 µM | 
CCCC(=O)Oc1ccc2c(=O)n(Cc3cccc(NS(=O)(=O)NC)c3F)c(=O)oc2c1 | 1.2 µM | 
CNS(=O)(=O)Nc1cccc(Cn2c(=O)oc3cc(OC(=O)N(C)C)ccc3c2=O)c1F | 0.055 µM | inhibition [2]: Active; CC50 at 24 h [3]: > 100 µM; IC50 [4]: 0.054 µM; selectivity ratio [5]: > 98; inhibition [6]: Dose-dependent effect; IC50 [7]: 0.056 µM; EC50 [8]: 1.02 µM; IC50 [9]: 0.181 µM; inhibition [10]: Active
CN(C)C(=O)Oc1ccc2c(=O)n(Cc3cccc(NS(=O)(=O)NCc4ccccc4)c3F)c(=O)oc2c1 | 1.49 µM | 
CN(C)C(=O)Oc1ccc2oc(=O)n(Cc3cccc(NS(C)(=O)=O)c3F)c(=O)c2c1 | > 10 µM | 
CN(C)C(=O)Oc1ccc2c(=O)n(Cc3cccc(NS(=O)(=O)NCCC#N)c3F)c(=O)oc2c1 | 0.06 µM | CC50 at 24 h [3]: > 100 µM; selectivity ratio [5]: > 25; inhibition [6]: Dose-dependent effect; EC50 [8]: 3.92 µM; inhibition [10]: Active
CN(C)C(=O)Oc1ccc2c(=O)n(Cc3cccc(NS(=O)(=O)NCC(F)(F)F)c3F)c(=O)oc2c1 | 0.42 µM | 
CN(C)C(=O)Oc1ccc2c(=O)n(Cc3ccc(NS(C)(=O)=O)cc3)c(=O)oc2c1 | > 10 µM | 
CN(C)C(=O)Oc1ccc2c(=O)n(Cc3cccc(NS(C)(=O)=O)c3)c(=O)oc2c1 | 5.92 µM | 
CCC(=O)Oc1ccc2c(=O)n(Cc3cccc(NS(=O)(=O)NC)c3F)c(=O)oc2c1 | 0.23 µM | 
COc1ccc2c(=O)n(Cc3cccc(NS(=O)(=O)NCCC#N)c3F)c(=O)oc2c1 | > 10 µM | 
O=C(NOC[C@H](O)CO)c1ccc(F)c(F)c1Nc1ccc(I)cc1F |  | inhibition [6]: Dose-dependent effect
CN(C)C(=O)Oc1ccc2c(=O)n(Cc3cccc([N+](=O)[O-])c3)c(=O)oc2c1 | > 10 µM | 
CN(C)C(=O)Oc1ccc2c(=O)n(Cc3cccc(NS(=O)(=O)Nc4ccccc4)c3F)c(=O)oc2c1 | 1.64 µM | 
CN(C)C(=O)Oc1ccc2c(=O)n(Cc3ccccc3NS(C)(=O)=O)c(=O)oc2c1 | > 10 µM | 
CN(C)C(=O)Oc1ccc2c(=O)n(Cc3cccc(NS(N)(=O)=O)c3F)c(=O)oc2c1 | 0.84 µM | 
CC(C)NS(=O)(=O)Nc1cccc(Cn2c(=O)oc3cc(OC(=O)N(C)C)ccc3c2=O)c1F | 0.21 µM | 
CNS(=O)(=O)Nc1cccc(Cn2c(=O)oc3cc(OC(=O)C(C)C)ccc3c2=O)c1F | 0.72 µM | 
CNS(=O)(=O)Nc1cccc(Cn2c(=O)oc3cc(OS(C)(=O)=O)ccc3c2=O)c1F | 2.54 µM | 
CCS(=O)(=O)Nc1cccc(Cn2c(=O)oc3cc(OC(=O)N(C)C)ccc3c2=O)c1F | 0.2 µM | 
CN(C)C(=O)Oc1ccc2c(=O)n(Cc3ccccc3F)c(=O)oc2c1 | > 10 µM | 
CN(C)C(=O)Oc1ccc2c(=O)n(Cc3ccc(F)c(NS(C)(=O)=O)c3)c(=O)oc2c1 | 9.87 µM | 
CNC(=O)c1cc(Oc2ccc(NC(=O)Nc3ccc(Cl)c(C(F)(F)F)c3)cc2)ccn1 [SORAFENIB] |  | CC50 at 24 h [3]: 7.05 µM
